Laboratory results taken from patent publication US12447153B2, “HER2 mutation inhibitors” (Array BioPharma Inc., priority 2021, dated 2025).

Legend:
[1] = biological target: EGFR (Homo sapiens (Human), UniProt P00533); assay: ErbB Enzyme Assay (HTRF KinEASE-TK), Assay 3; type: biochemical
[2] = biological target: MDR1 (P-gp) (Homo sapiens (Human), UniProt P08183); assay: in vitro; settings: pig, LLC-PK1
Experimental: Both LLC-PK1 and MDR1 transfected LLC-PK1 cells were cultured and plated according to manufacturer's recommendations with the exception that the passage media contained only 2% fetal bovine serum so as to extend passage time out to seven days.
Both positive and negative controls were used to assess functionality of P-gp or BCRP efflux in the assays. Stock solutions for assay controls and the test article were prepared in DMSO for final test concentrations of 10 μM and 1 μM, respectively. Final organic concentration in the assay was 1%. All dosing solutions contained 10 μM lucifer yellow to monitor LLC PK1 or MDCKII cell monolayer integrity.
For the apical to basolateral determination (A to B), 75 μL of the test article in transport buffer were added to the apical side of the individual transwells and 250 μL of basolateral media, without compound or lucifer yellow, were added to each well. For the basolateral to apical determination (B to A), 250 μL of test article in transport buffer were added to each well and 75 μL transport buffer, without compound or lucifer yellow, were added to each transwell. All tests were performed in triplicate, and each compound was tested for both apical to basolateral and basolateral to apical transport. The plates were incubated for 2 hours on a Lab-Line Instruments Titer Orbital Shaker (VWR, West Chester, PA) at 50 rpm and 37° C. with 5% CO2. All culture plates were removed from the incubator, 50 μL of media were removed from the apical and basolateral portion of each well, and added to 150 μL of 1 μM labetalol in 2:1 acetonitrile (ACN): H2O, v/v.
The plates were read using a Molecular Devices (Sunnyvale, CA) Gemini Fluorometer to evaluate the lucifer yellow concentrations at excitation/emission wavelengths of 425/535 nm. These values were accepted when found to be below 2% for apical to basolateral and 5% basolateral to apical flux across the MDR1-transfected LLC-PK1 or BCRP-transfected MDCKII cell monolayers. The plates were sealed, and the contents of each well analyzed by LC MS/MS. The compound concentrations were determined from the ratio of the peak areas of the compound to the internal standard (labetalol) in comparison to the dosing solution.
The LC-MS/MS system was comprised of an HTS-PAL autosampler (Leap Technologies, Carrboro, NC), an HP1200 HPLC (Agilent, Palo Alto, CA), and a MDS Sciex 4000 Q Trap system (Applied Biosystems, Foster City, CA). […] The total run time, including re-equilibration, for a single injection was 1.2 minutes. Mass spectrometric detection of the analytes was accomplished using the ion spray positive mode. Analyte responses were measured by multiple reaction monitoring (MRM) of transitions unique to each compound (the protonated precursor ion and selected product ions for each test article and m/z 329 to m/z 162 for labetalol, the internal standard).
An efflux ratio is calculated from the mean apical to basolateral (A-B) Papp data and basolateral to apical (B-A) Papp data: Efflux ratio=Papp(B−A)/Papp(A−B)

[3] = biological target: BCRP (Homo sapiens (Human), UniProt Q9UNQ0); assay: BCRP MDCKII efflux assay (Assay 7); type: in vitro ADME; settings: dog; efflux ratio Papp(B-A)/Papp(A-B), BCRP MDCKII cells; read-out: Assay 7 Pe Ratio
BCRP, sequence (Q9UNQ0 whole entry): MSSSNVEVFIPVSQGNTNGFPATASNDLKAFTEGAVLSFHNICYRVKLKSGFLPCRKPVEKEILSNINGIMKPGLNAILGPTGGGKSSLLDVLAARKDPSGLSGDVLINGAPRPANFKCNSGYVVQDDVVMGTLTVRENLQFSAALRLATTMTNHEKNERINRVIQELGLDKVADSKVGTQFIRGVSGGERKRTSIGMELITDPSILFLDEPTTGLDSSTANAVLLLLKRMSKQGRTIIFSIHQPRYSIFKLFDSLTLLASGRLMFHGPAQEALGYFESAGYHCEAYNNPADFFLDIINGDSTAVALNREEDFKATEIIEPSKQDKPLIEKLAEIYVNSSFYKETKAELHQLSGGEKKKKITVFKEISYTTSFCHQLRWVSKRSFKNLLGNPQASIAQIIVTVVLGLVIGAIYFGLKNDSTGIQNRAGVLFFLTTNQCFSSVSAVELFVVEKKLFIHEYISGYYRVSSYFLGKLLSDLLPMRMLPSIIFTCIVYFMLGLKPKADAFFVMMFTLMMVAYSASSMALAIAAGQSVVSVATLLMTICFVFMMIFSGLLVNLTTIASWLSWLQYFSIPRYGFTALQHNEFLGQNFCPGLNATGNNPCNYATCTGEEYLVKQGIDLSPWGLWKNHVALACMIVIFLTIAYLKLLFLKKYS
Experimental: Assay conditions included with and without the BCRP-specific inhibitor, KO143, at a concentration of 0.3 μM to ascertain the contribution of BCRP to the efflux value of the test compound.
Final organic concentration in the assay was 1%.

[4] = biological target: EGFR wild type (EGFR WT) (Homo sapiens (Human), UniProt P00533); assay: Cellular Phosphorylation Assay, Assay 5 (EGF-stimulated EGFR phosphorylation, NIH 3T3 cells); type: cell-based
[5] = biological target: ErbB2 WT (Homo sapiens (Human), UniProt P04626); assay: ErbB Enzyme Assay (HTRF KinEASE-TK), Assay 2; type: biochemical
ErbB2 WT, sequence (P04626 23-1255): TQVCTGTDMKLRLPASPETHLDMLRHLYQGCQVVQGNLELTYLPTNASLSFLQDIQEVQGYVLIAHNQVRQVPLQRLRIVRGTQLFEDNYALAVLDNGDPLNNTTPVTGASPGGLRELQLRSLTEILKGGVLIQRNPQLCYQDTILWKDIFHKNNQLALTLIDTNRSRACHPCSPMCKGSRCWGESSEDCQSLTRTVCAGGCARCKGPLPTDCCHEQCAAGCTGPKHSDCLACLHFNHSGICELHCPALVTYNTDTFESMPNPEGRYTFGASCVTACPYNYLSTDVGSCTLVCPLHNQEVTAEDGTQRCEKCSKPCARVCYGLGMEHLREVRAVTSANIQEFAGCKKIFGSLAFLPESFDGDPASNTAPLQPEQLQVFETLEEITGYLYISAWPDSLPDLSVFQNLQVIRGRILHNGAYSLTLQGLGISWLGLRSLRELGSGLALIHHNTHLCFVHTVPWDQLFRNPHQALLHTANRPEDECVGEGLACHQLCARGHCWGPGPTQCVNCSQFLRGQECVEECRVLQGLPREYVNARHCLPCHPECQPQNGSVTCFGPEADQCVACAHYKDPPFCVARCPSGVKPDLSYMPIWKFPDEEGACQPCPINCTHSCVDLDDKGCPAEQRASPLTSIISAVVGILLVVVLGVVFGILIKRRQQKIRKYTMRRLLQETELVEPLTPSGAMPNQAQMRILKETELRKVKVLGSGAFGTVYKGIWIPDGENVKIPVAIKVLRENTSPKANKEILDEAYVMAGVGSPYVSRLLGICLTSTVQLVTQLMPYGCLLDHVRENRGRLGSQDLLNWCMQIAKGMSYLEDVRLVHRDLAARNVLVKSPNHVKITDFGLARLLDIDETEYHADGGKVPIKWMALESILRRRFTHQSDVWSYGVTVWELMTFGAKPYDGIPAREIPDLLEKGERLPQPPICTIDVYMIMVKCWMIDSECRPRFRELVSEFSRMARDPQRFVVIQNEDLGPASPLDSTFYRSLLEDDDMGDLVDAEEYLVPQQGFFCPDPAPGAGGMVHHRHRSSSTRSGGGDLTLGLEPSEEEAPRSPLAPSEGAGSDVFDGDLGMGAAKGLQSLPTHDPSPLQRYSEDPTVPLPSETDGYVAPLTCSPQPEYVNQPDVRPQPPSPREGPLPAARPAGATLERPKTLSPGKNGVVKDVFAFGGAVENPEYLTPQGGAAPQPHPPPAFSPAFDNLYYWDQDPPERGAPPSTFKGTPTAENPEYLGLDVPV

[6] = biological target: ErbB2 with Exon 20 YVMA insertion (HER2-YVMA) (Homo sapiens (Human), UniProt P04626, INS775YVMA); assay: Cellular Phosphorylation Assay, Assay 4 (constitutive ErbB2 phosphorylation, NIH 3T3 cells); type: cell-based
ErbB2 with Exon 20 YVMA insertion (HER2-YVMA), sequence (P04626 other isoform, or with tags, fused parts or gaps ins YVMA behind 775): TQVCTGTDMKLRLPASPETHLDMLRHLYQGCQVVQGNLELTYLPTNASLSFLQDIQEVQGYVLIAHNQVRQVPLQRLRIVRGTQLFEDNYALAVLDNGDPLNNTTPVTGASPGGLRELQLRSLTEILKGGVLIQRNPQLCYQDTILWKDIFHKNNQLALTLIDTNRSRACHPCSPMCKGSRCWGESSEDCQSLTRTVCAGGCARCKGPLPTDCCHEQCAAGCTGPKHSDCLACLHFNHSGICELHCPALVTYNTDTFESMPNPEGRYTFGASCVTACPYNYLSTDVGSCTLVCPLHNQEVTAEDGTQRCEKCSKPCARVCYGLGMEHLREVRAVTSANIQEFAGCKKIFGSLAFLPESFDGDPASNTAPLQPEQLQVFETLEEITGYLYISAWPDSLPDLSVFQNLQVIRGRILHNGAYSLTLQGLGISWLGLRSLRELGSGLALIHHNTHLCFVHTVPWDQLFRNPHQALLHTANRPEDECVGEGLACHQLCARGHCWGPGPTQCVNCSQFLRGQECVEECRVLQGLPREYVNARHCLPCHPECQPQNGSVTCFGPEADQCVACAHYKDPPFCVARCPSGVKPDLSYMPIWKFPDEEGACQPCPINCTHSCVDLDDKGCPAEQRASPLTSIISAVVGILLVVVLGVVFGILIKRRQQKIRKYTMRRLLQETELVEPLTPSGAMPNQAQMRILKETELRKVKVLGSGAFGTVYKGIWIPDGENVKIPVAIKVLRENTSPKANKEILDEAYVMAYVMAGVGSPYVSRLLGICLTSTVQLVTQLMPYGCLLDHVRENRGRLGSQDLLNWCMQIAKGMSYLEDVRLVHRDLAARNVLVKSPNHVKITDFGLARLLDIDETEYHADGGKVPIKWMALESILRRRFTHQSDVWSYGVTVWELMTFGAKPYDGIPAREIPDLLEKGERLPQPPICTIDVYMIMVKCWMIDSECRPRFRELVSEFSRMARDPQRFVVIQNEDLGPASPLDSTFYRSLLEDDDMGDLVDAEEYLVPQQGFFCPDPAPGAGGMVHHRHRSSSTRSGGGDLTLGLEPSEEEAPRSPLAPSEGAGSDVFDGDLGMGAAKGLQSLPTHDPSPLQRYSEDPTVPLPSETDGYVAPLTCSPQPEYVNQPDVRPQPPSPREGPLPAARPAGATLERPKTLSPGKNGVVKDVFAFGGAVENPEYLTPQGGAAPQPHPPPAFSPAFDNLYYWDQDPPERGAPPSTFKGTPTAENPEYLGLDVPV

[7] = cellular EGFR WT phosphorylation, EGF-stimulated
[8] = cellular ErbB2 YVMA phosphorylation
[9] = EGF-stimulated EGFR WT phosphorylation

MDR1 (P-gp), sequence (P08183 whole entry): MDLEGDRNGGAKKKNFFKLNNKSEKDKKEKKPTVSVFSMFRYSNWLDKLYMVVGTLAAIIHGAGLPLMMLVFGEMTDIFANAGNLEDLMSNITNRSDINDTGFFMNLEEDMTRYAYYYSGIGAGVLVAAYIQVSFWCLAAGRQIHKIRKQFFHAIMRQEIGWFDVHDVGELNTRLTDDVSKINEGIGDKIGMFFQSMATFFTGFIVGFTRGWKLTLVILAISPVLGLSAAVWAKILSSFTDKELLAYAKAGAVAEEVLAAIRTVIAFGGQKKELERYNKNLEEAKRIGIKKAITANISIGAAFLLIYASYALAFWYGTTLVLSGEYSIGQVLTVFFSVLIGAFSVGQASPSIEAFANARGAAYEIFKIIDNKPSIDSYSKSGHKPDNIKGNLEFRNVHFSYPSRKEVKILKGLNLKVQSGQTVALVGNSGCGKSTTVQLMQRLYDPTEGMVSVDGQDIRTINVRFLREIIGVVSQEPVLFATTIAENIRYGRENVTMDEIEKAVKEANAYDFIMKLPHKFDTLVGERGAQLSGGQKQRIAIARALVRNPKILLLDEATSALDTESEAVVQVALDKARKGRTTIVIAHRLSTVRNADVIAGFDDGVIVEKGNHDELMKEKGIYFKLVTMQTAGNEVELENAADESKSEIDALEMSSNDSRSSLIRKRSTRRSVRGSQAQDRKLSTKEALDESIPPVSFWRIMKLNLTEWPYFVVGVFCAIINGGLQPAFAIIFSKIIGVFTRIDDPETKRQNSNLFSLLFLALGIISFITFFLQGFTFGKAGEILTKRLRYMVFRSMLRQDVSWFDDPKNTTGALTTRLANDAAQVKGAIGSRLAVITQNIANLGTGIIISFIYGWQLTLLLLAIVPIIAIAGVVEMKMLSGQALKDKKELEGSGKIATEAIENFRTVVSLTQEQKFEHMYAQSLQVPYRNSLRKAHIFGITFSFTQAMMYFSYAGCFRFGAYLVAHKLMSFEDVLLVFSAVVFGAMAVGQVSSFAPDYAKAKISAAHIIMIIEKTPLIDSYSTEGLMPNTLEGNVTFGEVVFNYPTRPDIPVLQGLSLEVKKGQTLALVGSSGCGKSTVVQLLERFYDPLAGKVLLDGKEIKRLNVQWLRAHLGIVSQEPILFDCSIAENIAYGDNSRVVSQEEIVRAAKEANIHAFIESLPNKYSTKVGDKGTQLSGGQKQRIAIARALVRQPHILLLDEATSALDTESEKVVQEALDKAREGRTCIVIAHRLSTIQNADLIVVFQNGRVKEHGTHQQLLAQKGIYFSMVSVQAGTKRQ

Work on C=CC(=O)N1C[C@@H](c2ccc3ncnc(Nc4ccc(Oc5ccn6ncnc6c5)c(C)c4F)c3n2)C[C@@H]1C (mixture of isomers) [Example 385] yielded an IC50 ([1]; EGFR enzyme assay) of 848 nM, an efflux ratio at 2 h, 1 µM [2] of 1.3 and an efflux ratio at 2 h, 1 µM [3] of 5. For the same molecule, the IC50 [4, 7] was 1950 nM, the IC50 ([5]; ErbB2 WT enzyme assay) was 28.3 nM and the IC50 [6, 8] was 29.4 nM.

C=CC(=O)N1C[C@H](c2ccc3ncnc(Nc4ccc(Oc5ccc6c(c5)ncn6C)c(C)c4F)c3n2)CCC1(C)C (racemic) [Example 36, 1-(5-(4-((2-fluoro-3-methyl-4-((1-methyl-1H-benzo[d]imidazol-5-yl)oxy)phenyl)amino)pyrido[3,2-d]pyrimidin-6-yl)-2,2-dimethylpiperidin-1-yl)prop-2-en-1-one] showed an IC50 ([1]; EGFR enzyme) of no less than 10000 nM, an efflux ratio at 2 h, 1 µM [2] of 0.8 and an efflux ratio at 2 h, 1 µM [3] of 4.2. It also gave an IC50 [4, 9] of 1700 nM, an IC50 ([5]; ErbB2 WT enzyme) of 105 nM and an IC50 ([6]; ErbB2 YVMA phosphorylation) of 18.9 nM.

Work on C=CC(=O)N1CC[C@H]2C[C@@H](c3ccc4ncnc(Nc5cc(C)c(Oc6ccc7c(c6)ncn7C)cc5F)c4n3)C[C@H]21 (racemic) [Example 37, 1-(5-(4-((2-fluoro-5-methyl-4-((1-methyl-1H-benzo[d]imidazol-5-yl)oxy)phenyl)amino)pyrido[3,2-d]pyrimidin-6-yl)hexahydrocyclopenta[b]pyrrol-1(2H)-yl)prop-2-en-1-one] yielded an IC50 ([1]; EGFR enzyme) of no less than 10000 nM, an efflux ratio at 2 h, 1 µM [2] of 1.5 and an efflux ratio at 2 h, 1 µM [3] of 1.8. It also gave an IC50 [4, 9] of no less than 5000 nM, an IC50 ([5]; ErbB2 WT enzyme) of 119 nM and an IC50 ([6]; ErbB2 YVMA phosphorylation) of 20.3 nM.

In the case of C=CC(=O)N1CCC[C@@H](c2ccc3ncnc(Nc4cc(C)c(Oc5ccc6c(c5)ncn6C)cc4F)c3n2)C1 (racemic) [Example 129, rac-(R)-1-(3-(4-((2-fluoro-5-methyl-4-((1-methyl-1H-benzo[d]imidazol-5-yl)oxy)phenyl)amino)pyrido[3,2-d]pyrimidin-6-yl)piperidin-1-yl)prop-2-en-1-one], the IC50 ([1]; EGFR enzyme) is reported as 7930 nM, the efflux ratio at 2 h, 1 µM [2] is reported as 1.4 and the efflux ratio at 2 h, 1 µM [3] is reported as 1.4. It also gave an IC50 [4, 9] of no less than 5000 nM, an IC50 ([5]; ErbB2 WT enzyme) of 65.9 nM and an IC50 ([6]; ErbB2 YVMA phosphorylation) of 16.6 nM.

With C=CC(=O)N1CC[C@H](c2ccc3ncnc(Nc4ccc(Oc5ccc6c(c5)ncn6C)c(C)c4F)c3n2)CC(C)(C)C1 (racemic) [Example 140, rac-(R)-1-(5-(4-((2-fluoro-3-methyl-4-((1-methyl-1H-benzo[d]imidazol-5-yl)oxy)phenyl)amino)pyrido[3,2-d]pyrimidin-6-yl)-3,3-dimethylazepan-1-yl)prop-2-en-1-one] the IC50 ([1]; EGFR enzyme) was no less than 10000 nM, the efflux ratio at 2 h, 1 µM [2] was 1.2 and the efflux ratio at 2 h, 1 µM [3] was 1.9. The IC50 [4, 9] was no less than 5000 nM, the IC50 ([5]; ErbB2 WT enzyme) was 225 nM and the IC50 ([6]; ErbB2 YVMA phosphorylation) was 31.1 nM.

For C=CC(=O)N1CCC(Oc2ccc3ncnc(Nc4ccc(Oc5ccn6ccnc6c5)c(C)c4)c3n2)CC1 [Example 15, 1-(4-((4-((4-(imidazo[1,2-a]pyridin-7-yloxy)-3-methylphenyl)amino)pyrido[3,2-d]pyrimidin-6-yl)oxy)piperidin-1-yl)prop-2-en-1-one], the IC50 ([1]; EGFR enzyme) was 1680 nM, the efflux ratio at 2 h, 1 µM [2] was 10.2 and the IC50 [4, 9] was 555 nM. It also gave an IC50 ([5]; ErbB2 WT enzyme) of 45.5 nM and an IC50 ([6]; ErbB2 YVMA phosphorylation) of 12.8 nM.

C=CC(=O)N1CCC(Oc2ccc3ncnc(Nc4ccc(Oc5ccn6ncnc6c5)c(C)c4F)c3n2)CC1 [Example 17, 1-(4-((4-((4-([1,2,4]triazolo[1,5-a]pyridin-7-yloxy)-2-fluoro-3-methylphenyl)amino)pyrido[3,2-d]pyrimidin-6-yl)oxy)piperidin-1-yl)prop-2-en-1-one] gave an IC50 ([1]; EGFR enzyme) of 2110 nM, an efflux ratio at 2 h, 1 µM [2] of 2.7 and an IC50 [4, 9] of 1220 nM. The IC50 ([5]; ErbB2 WT enzyme) was 48.3 nM and the IC50 ([6]; ErbB2 YVMA phosphorylation) was 14 nM.

In the case of C=CC(=O)N1CCC(N(C)c2ccc3ncnc(Nc4ccc(Oc5ccn6ncnc6c5)c(C)c4F)c3n2)CC1 [Example 32, 1-(4-((4-((4-([1,2,4]triazolo[1,5-a]pyridin-7-yloxy)-2-fluoro-3-methylphenyl)amino)pyrido[3,2-d]pyrimidin-6-yl)(methyl)amino)piperidin-1-yl)prop-2-en-1-one], the IC50 ([1]; EGFR enzyme) is reported as 5530 nM, the efflux ratio at 2 h, 1 µM [2] is reported as 1.9 and the IC50 [4, 9] is reported as no less than 5000 nM. For the same molecule, the IC50 ([5]; ErbB2 WT enzyme) was 45.8 nM and the IC50 ([6]; ErbB2 YVMA phosphorylation) was 131 nM.

C=CC(=O)N1CCC(Oc2ccc3ncnc(Nc4ccc(Oc5cc6nn(C)cc6cn5)c(C)c4)c3n2)CC1 [Example 52, 1-(4-((4-((3-methyl-4-((2-methyl-2H-pyrazolo[4,3-c]pyridin-6-yl)oxy)phenyl)amino)pyrido[3,2-d]pyrimidin-6-yl)oxy)piperidin-1-yl)prop-2-en-1-one] was tested, and the IC50 ([1]; EGFR enzyme) was no less than 10000 nM, the efflux ratio at 2 h, 1 µM [2] was 34.5 and the IC50 [4, 9] was no less than 5000 nM. For the same molecule, the IC50 ([5]; ErbB2 WT enzyme) was 395 nM and the IC50 ([6]; ErbB2 YVMA phosphorylation) was 34.7 nM.

C=CC(=O)N1C[C@@H](c2ccc3ncnc(Nc4cc(C)c(Oc5ccc6c(c5)ncn6C)cc4F)c3n2)C[C@@H]1C [Example 190, 1-((2S,4S)-4-(4-((2-fluoro-5-methyl-4-((1-methyl-1H-benzo[d]imidazol-5-yl)oxy)phenyl)amino)pyrido[3,2-d]pyrimidin-6-yl)-2-methylpyrrolidin-1-yl)prop-2-en-1-one] was tested, and the IC50 ([1]; EGFR enzyme) was 3800 nM, the efflux ratio at 2 h, 1 µM [2] was 3.9 and the IC50 [4, 9] was no less than 5000 nM. For the same molecule, the IC50 ([5]; ErbB2 WT enzyme) was 41.1 nM and the IC50 ([6]; ErbB2 YVMA phosphorylation) was 16 nM.

In the case of C=CC(=O)N1C[C@H]2C[C@@H]1[C@H](c1ccc3ncnc(Nc4cc(C)c(Oc5ccc6c(c5)ncn6C)cc4F)c3n1)C2 [Example 374], the IC50 ([1]; EGFR enzyme assay) is reported as 2660 nM, the efflux ratio at 2 h, 1 µM [3] is reported as 3.4 and the IC50 [4, 7] is reported as no less than 5000 nM. For the same molecule, the IC50 ([5]; ErbB2 WT enzyme assay) was 16.5 nM and the IC50 [6, 8] was 20.5 nM.

C=CC(=O)N1C[C@@H]2C[C@H]1C[C@H]2c1ccc2ncnc(Nc3cc(C)c(Oc4ccc5c(c4)ncn5C)cc3F)c2n1 [Example 375] showed an IC50 ([1]; EGFR enzyme assay) of 1030 nM, an efflux ratio at 2 h, 1 µM [3] of 4 and an IC50 [4, 7] of 2020 nM. For the same molecule, the IC50 ([5]; ErbB2 WT enzyme assay) was 43.6 nM and the IC50 [6, 8] was 19 nM.
